Results from ChEMBL document CHEMBL1201862, “PubChem BioAssay data set” (2004).
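Five concentrations, 48 hours, 96-well plates. GI50 marks 50% less growth.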 Calls of active or inactive are those of the source. No stated cut-off is given here; in the data, active = GI50 up to about 1.1 µM and inactive = higher.

What was measured:
Test in all cases: NCI-60 cell line screen, 48 h
[1] = system: UACC-257
[2] = system: OVCAR-5
[3] = system: CCRF-CEM
[4] = system: COLO 205
[5] = system: M14
[6] = system: RPMI-8226
[7] = system: NCI/ADR-RES
[8] = system: HOP-92
[9] = system: MOLT-4
[10] = system: SK-MEL-28
[11] = system: NCI-H226
[12] = system: HOP-62
[13] = system: SN12C
[14] = system: A549
[15] = system: OVCAR-3
[16] = system: SF-268
[17] = system: KM12
[18] = system: K562
[19] = system: IGROV-1
[20] = system: NCI-H23

Measured: GI50

O=C(O)C1CCc2ccc3ccccc3c2C1c1cccc2ccccc12 (stereo unspecified)
inactive: [1] 25.9 µM | [2] 18.4 µM | [3] 19.1 µM | [4] 25.9 µM | [5] 17.6 µM | [6] 27.9 µM | [7] 23.3 µM | [8] 19.1 µM | [9] 19.8 µM | [10] 18.7 µM | [11] 24.7 µM | [12] 19 µM | [13] 24.2 µM | [14] 16.5 µM | [15] 16.3 µM | [16] 27.9 µM | [17] 21.9 µM | [18] 32.3 µM | [19] 22.9 µM

Clc1nss/c1=N/c1nonc1-c1ccccc1
inactive: [1] 33 µM | [20] 26.1 µM | [2] 19.5 µM | [3] 17.9 µM | [4] 20.4 µM | [5] 16 µM | [6] 27.2 µM | [7] 24 µM | [8] 40.2 µM | [9] 25.1 µM | [10] 48.1 µM | [11] 29.6 µM | [12] 51.3 µM | [13] 18 µM | [14] 68.9 µM | [15] 39 µM | [17] 31 µM | [18] 23.2 µM | [19] 26.4 µM

O=C1C(Cl)C(c2cccc(Cl)c2)N1c1ccc(-n2c(S)nc3ccccc3c2=O)cc1 (stereo unspecified)
inactive: [1] 26.9 µM | [20] 19.6 µM | [2] 24.9 µM | [3] 23 µM | [4] 24.5 µM | [5] 19.5 µM | [6] 17.9 µM | [7] 25.8 µM | [8] 19.9 µM | [9] 14 µM | [11] 25.4 µM | [12] 23.9 µM | [13] 15.8 µM | [14] 28.2 µM | [15] 30.5 µM | [16] 12.6 µM | [17] 28.4 µM | [18] 17.9 µM | [19] 5.07 µM

CCn1c(-c2ccccc2)cs/c1=N\C(P(=O)(O)O)P(=O)(O)O
inactive: [1] > 100 µM | [20] > 100 µM | [2] > 100 µM | [3] 2.05 µM | [4] > 100 µM | [5] > 100 µM | [6] > 100 µM | [7] > 100 µM | [8] > 100 µM | [9] > 100 µM | [10] > 100 µM | [11] > 100 µM | [12] > 100 µM | [14] > 100 µM | [15] > 100 µM | [16] > 100 µM | [17] > 100 µM | [18] > 100 µM | [19] > 100 µM

CCCCCCN1C(=O)CC(=O)N(CCCCCC)S1(=O)=O
inactive: [1] 38.4 µM | [20] 25.7 µM | [2] 19.8 µM | [3] 21.7 µM | [4] 17.9 µM | [5] 32.4 µM | [6] 24.7 µM | [7] 21.7 µM | [8] 11.6 µM | [9] 23.3 µM | [11] 26.6 µM | [12] 18.9 µM | [13] 17.7 µM | [14] 35.2 µM | [15] 21.4 µM | [16] 17.7 µM | [17] 28.1 µM | [18] 40.6 µM | [19] 12.4 µM

CC(C)(C)OC(=O)C1CCC/C1=N/Nc1ccc([N+](=O)[O-])cc1[N+](=O)[O-] (stereo unspecified)
inactive: [20] 18 µM | [2] 43.3 µM | [3] 19.7 µM | [4] 27 µM | [5] 39.6 µM | [6] 32 µM | [7] 26.1 µM | [8] 47.1 µM | [9] 17.7 µM | [10] 54.7 µM | [11] 21.3 µM | [12] 45.6 µM | [13] 40.7 µM | [14] 31.9 µM | [15] 46.6 µM | [16] 41.8 µM | [17] 54.7 µM | [18] 15.7 µM | [19] 25.5 µM

COc1cc(OC)c(OC)cc1/C=C/c1cnnc2ccccc12
inactive: [1] > 10 µM | [20] > 10 µM | [2] > 10 µM | [3] > 10 µM | [4] > 10 µM | [5] > 10 µM | [6] > 10 µM | [7] > 10 µM | [8] > 10 µM | [9] > 10 µM | [10] > 10 µM | [11] > 10 µM | [12] > 10 µM | [13] > 10 µM | [14] > 10 µM | [15] > 10 µM | [16] > 10 µM | [17] > 10 µM | [18] 7.85 µM | [19] > 10 µM

CN(C)C(=O)Oc1ccc(-c2cn3cc(NC(=O)c4ccccc4)ccc3n2)cc1
inactive: [1] 53.8 µM | [20] > 100 µM | [2] > 100 µM | [3] 99.5 µM | [4] 14.3 µM | [5] > 100 µM | [6] 19.1 µM | [7] > 100 µM | [8] > 100 µM | [9] 17.2 µM | [10] > 100 µM | [11] > 100 µM | [12] > 100 µM | [13] > 100 µM | [14] 83.4 µM | [15] 53.7 µM | [16] 80.4 µM | [17] 55.5 µM | [18] 19.5 µM | [19] 70.8 µM

COC1CC(N)(c2ccccc2)C(O)C(C)O1 (stereo unspecified)
inactive: [1] > 100 µM | [20] > 100 µM | [2] > 100 µM | [3] > 100 µM | [4] > 100 µM | [5] > 100 µM | [6] > 100 µM | [7] > 100 µM | [8] > 100 µM | [9] > 100 µM | [10] > 100 µM | [11] > 100 µM | [12] > 100 µM | [13] > 100 µM | [14] > 100 µM | [15] > 100 µM | [16] > 100 µM | [18] > 100 µM | [19] > 100 µM

O/N=C\c1c(O)ccc2ccccc12
inactive: [1] 71.9 µM | [20] 83.6 µM | [2] > 100 µM | [3] 47.2 µM | [4] 55.3 µM | [5] 68.2 µM | [6] 49.8 µM | [7] 68.2 µM | [8] 73.8 µM | [10] 47.2 µM | [11] 33.3 µM | [12] 70.1 µM | [13] 38.3 µM | [14] 46.6 µM | [15] 20.2 µM | [16] 31.6 µM | [17] 42.3 µM | [18] 46.8 µM
